Measured values: patent US9414901B2, “Drug-eluting stents for adenosine receptor modulation” (Indiana University Research and Technology Corporation, priority 2009, dated 2016)
Values after ≈ are worked out from the molar mass of the structure shown. Values belong to the compound of their own block, whether it stands above or below them.

Legend:
porcine CSM = details: cited from earlier work
[1] = system: porcine CSM (coronary artery smooth muscle cells); test: CSM proliferation/viability by MTT assay on collagen matrix/DPCPX-loaded PU film; assay type: cell-based, Ossabaw pigs; details: no DPCPX release, day 4
Procedure: A drug eluting film coated on the cover glass was placed in each well of a 24-well plate for a cell culture study.
Hearts were harvested from Ossabaw pigs. Coronary arteries dissected from the hearts were placed in a physiological buffer. Porcine CSM were enzymatically dispersed from coronary arteries using collagenase solutions. Primary cultured CSM were subcultured at 37° C. with 5% CO2 in DMEM containing 10% fetal bovine serum (FBS). CSM cultured with 80% confluence were used between passage 4 and 10.
The CSM were seeded on the surface of type I collagen that was gelated on the DPCPX-loaded PU film. The DPCPX-loaded PU films with various drug/polymer ratios and pure PU film as a control were placed in 24-well plates. Collagen solution was prepared by mixing eight parts of PURECOL (3 mg/mL) with one part of 10×PBS. The pH of the collagen solution was adjusted to 7.4 by adding 0.01 N HCl and 0.1 M NaOH. […] Subcultured CSM were suspended by trypsinization, counted and seeded on the collagen matrix/DPCPX-loaded PU film in 24 wells. […]
After 4 days, cell proliferation was estimated using an MTT cell growth assay kit (Chemicon International). […] The absorbance was read at 490 nm, which was directly proportional to the number of living cells. The measured absorbance in each treatment group was compared to the percent of control. […]

[2] = In vitro DPCPX release from coated stents in PBS (HPLC); assay type: physicochemical; details: stents coated with DPCPX in polymer-1 or polymer-2 (PLGA), 30% and 50% DPCPX/polymer, PBS buffer
Procedure: The drug elution profiles of the two different sets of PU films were examined instead of expanded state of stents. […] The release rate was slightly accelerated with the increase in the drug/PU ratio on the stent coated at the constant drug density of 1 μg/mm^2 (30%>20%>10% DPCPX/PU ratio).
In the drug release study, 2 mL of PBS buffer was used as a release medium which was replaced with a fresh solution every day. Release profiles may be partially affected by dissolution-limited release in addition to diffusion-limited release. Previous studies used 1.5 mL of medium with addition of 10% ethanol or 1.5 mL of PBS with 0.005% Tween 20 per stent. Addition of ethanol in the release medium removed the solubility limitation, but ethanol affected the release profiles as confirmed in the accelerated release studies; thus, ethanol was not used in this study.
Stainless steel stents were coated with polymer and DPCPX in concentrations that optimized in vitro elution kinetics of DPCPX (FIG. 5). Stents used for in vivo testing were coated with 300 μg DPCPX and 700 μg PLGA ([…]) polymer. A1R selective antagonist-DPCPX was dissolved in THF along with polymer-1 and polymer-2. The solutions were spray coated on stainless steel stents. […] The amounts of released DPCPX were analyzed using HPLC. […]

physchem = details: thermodynamic from solid
[3] = system: in-stent coronary stenosis in metabolic syndrome pigs; test: In-stent stenosis by IVUS 4 weeks after coronary stenting; assay type: in vivo, Ossabaw miniature swine; details: IVUS at 4 weeks
Source text: Under angiographic guidance, polymer- and DPCPX-eluting stents were placed in either left circumflex (CFX) or left anterior descending (LAD) artery of anesthetized male Ossabaws by random assignment.
A stainless steel stent deployment was utilized to cause vascular injury, which leads to coronary neointima formation (in-stent stenosis) in lean Ossabaw swine and in Ossabaw swine with metabolic syndrome (also known as pre-diabetes).
Stents were inflated to 1.1× of lumen diameter. The right coronary artery (RC) served as a non-stented control. Pigs were allowed to recover for 4 weeks, then sacrificed, and coronary arteries were harvested for tissue analysis.
In-stent stenosis was quantified as the percent area covered with stenotic lesions in in-stent coronary segments in vivo using intravascular ultrasound (IVUS) right before sacrifice. Percent area in-stent stenosis=Area of Neointima/Area of Original Lumen indicated by stent struts×100.
Bare metal and paclitaxel stents were deployed in coronary arteries of lean and metabolic syndrome (MetS) pigs (n=5/group) with stent:artery ratios at 1.0 (A) and 1.3 (B), *p<0.01. Polymer-coated (Polymer, control) and DPCPX-eluting stents (DPCPX) were deployed concurrently in coronary arteries with stent:artery ratio of 1.1 in lean and MetS pigs (n=5/group, C), *p<0.01. (A-C) IVUS was done 4 weeks after stenting in vivo to evaluate in-stent stenosis. Percent area stenosis of in-stent segments was quantified by IVUS.

[4] = system: ERK, JNK and PI3K-AKT signaling pathways in CSM; details: dose-dependent manner; cited from earlier work

SMILES: OC[C@H]1O[C@@H](n2cnc3c(NC4CCCC4)nc(Cl)nc32)[C@H](O)[C@@H]1O [CCPA, 2-Chloro-N-6-cyclopentyladenosine]
DNA synthesis, protein synthesis, and cell number in porcine CSM (porcine CSM): increase | CSM viability (MTT), % of first control ([1]; 0.1 μM CCPA): 121.8% | CSM viability (MTT), % of first control ([1]; 10 μM CCPA): 112.2%

period over which release of DPCPX was sustained [2]: ≥ 28 days | solubility at 48 h (physchem; PBS with 0.05% Tween 20, 37 °C, pH 7.4, aqueous with cosolvent or surfactant or cyclodextrin): 1.63 ± 0.08 µg/mL (≈ 5.35 µM) | solubility at 48 h (physchem; PBS, 37 °C, pH 7.4, aqueous buffer): 1.69 ± 0.72 µg/mL (≈ 5.55 µM) | solubility at 48 h (physchem; distilled water, pH adjusted, 37 °C, pH 3, aqueous buffer): ~1.6 µg/mL (≈ 5.26 µM) | solubility at 48 h (physchem; distilled water, pH adjusted, 37 °C, pH 11, aqueous buffer): 38.1 ± 2.3 µg/mL (≈ 125 µM) | solubility at 48 h (physchem; water, 37 °C, pH 7.4, water): 1.62 ± 0.12 µg/mL (≈ 5.32 µM)
SMILES: CCCn1c(=O)c2[nH]c(C3CCCC3)nc2n(CCC)c1=O [DPCPX, 1,3-dipropyl-8-cyclopentyl xanthine]
decrease in in-stent stenosis ([3]; eluting stent (300 μg DPCPX, 700 μg PLGA) at 1.1 times lumen diameter, vs polymer-coated stent): 53% | adenosine-induced ERK, JNK, and AKT phosphorylation [4]: significantly decreases

SMILES: CC(=O)O[C@H]1C(=O)[C@@]2(C)[C@H]([C@H](OC(=O)c3ccccc3)[C@]3(O)C[C@H](OC(=O)[C@H](O)[C@@H](NC(=O)c4ccccc4)c4ccccc4)C(C)=C1C3(C)C)[C@]1(OC(C)=O)CO[C@@H]1C[C@@H]2O [Paclitaxel]
decrease in in-stent stenosis ([3]; metabolic syndrome pigs, eluting stent deployed at 1.0 times lumen diameter, vs bare metal stent): 47% | decrease in in-stent stenosis ([3]; metabolic syndrome pigs, eluting stent deployed at 1.3 times lumen diameter, vs bare metal stent): 55%

SMILES: Nc1ncnc2c1ncn2[C@@H]1O[C@H](CO)[C@@H](O)[C@H]1O [adenosine]
DNA synthesis, protein synthesis, and cell number in porcine CSM (porcine CSM): increase
